Experiments:
Test in all cases: AUC of viability dose-response curve (% viability x log10 dose units); higher = less sensitive
Conditions in all cases: 48 h
[1] = tested on: NOMO1
Outline: (§1)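 Leukemia cells adapted to each medium (500 or 1000 cells/well, 1536-well plates) were exposed to library compounds in DMSO for 48 h at 37°C at 11 threefold doses, 47 μM to 0.79 nM. Luminescence by CellTiter-Glo One was normalised per plate to DMSO and cell-free wells, then fitted with a four-parameter log-logistic curve on log10 dose. Curves above full viability were scaled and quality-control failures removed before area under the curve was integrated by trapezoidal rule.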

[2] = tested on: SEM cells
Outline: as §1

[3] = tested on: P12-Ichikawa
Outline: as §1

[4] = RPMI 5 mM glucose + 10% dialyzed FBS

| SMILES | AUC of viability dose-response curve ([1]; HPLM + 10% dialyzed FBS) | AUC of viability dose-response curve ([1]; RPMI 5 mM glucose + 10% FBS) | AUC of viability dose-response curve [1, 4] | AUC of viability dose-response curve ([2]; HPLM + 10% dialyzed FBS) | AUC of viability dose-response curve ([2]; RPMI 5 mM glucose + 10% FBS) | AUC of viability dose-response curve [2, 4] | AUC of viability dose-response curve ([3]; HPLM + 10% dialyzed FBS) | AUC of viability dose-response curve ([3]; RPMI 5 mM glucose + 10% FBS) | AUC of viability dose-response curve [3, 4] |
| --- | --- | --- | --- | --- | --- | --- | --- | --- | --- |
| CC(C)OC(=O)CCC/C=C\C[C@@H]1[C@@H](/C=C/[C@@H](O)COc2cccc(C(F)(F)F)c2)[C@H](O)C[C@@H]1O | 443 | 448 | 450 | 455 | 452 | 434 | 459 | 439 | 446 |
| C1Cc2[nH]nc(-c3nn[nH]n3)c2C1 | 460 | 460 | 456 | 464 | 438 | 445 | 470 | 458 | 472 |
| FC(F)(F)c1ccc(Nc2nc3cc(Oc4ccnc(-c5ncc(C(F)(F)F)[nH]5)c4)ccc3[nH]2)cc1 | 472 | 466 | 476 | 442 | 439 | 420 | 465 | 460 | 458 |
| CCNC(=O)C[C@@H]1\N=C(C2=CC=C(Cl)C=C2)/C3=C(C=CC(=C3)OC)[N]4C(=NN=C14)C | 373 | 392 | 388 | 311 | 299 | 303 | 395 | 396 | 388 |
| O=C(Nc1ccc(OC(F)(F)F)cc1)c1sccc1NCc1ccnc2ccccc12 | 346 | 388 | 395 | 373 | 359 | 395 | 295 | 351 | 363 |
| Cl.c1cnc2cc3c(cc2n1)C1CNCC3C1 | 465 | 470 | 467 | 458 | 444 | 461 | 474 | 444 | 467 |
| COC1=CC=C2Nc3cc(Cl)ccc3C(N=C3C=C(CN4CCCC4)C(=O)C(CN4CCCC4)=C3)=C2N1 | 472 | 459 | 475 | 435 | 449 | 437 | 472 | 468 | 469 |
| COC[C@H](NC(=O)c1cnc(C)s1)C(=O)N[C@@H](COC)C(=O)N[C@@H](Cc1ccccc1)C(=O)[C@@]1(C)CO1 | 265 | 273 | 271 | 214 | 213 | 199 | 251 | 245 | 231 |

From the supplement of paper PMC11451515
